Read-outs that look alike come from different tables or passages of the source.
Columns and labels:
[1] = system: human breast cancer MDA-MB-231 cell lines; assay: MTT cytotoxicity assay, MDA-MB-231; format: cell-based; conditions: mean ± SD of three experiments
Description: (§1) Human breast adenocarcinoma MCF-7 cell lines, human breast cancer MDA-MB-231 cell lines, and the normal human liver L-O2 cell lines were provided by Nanjing KeyGen Biotech Co. Ltd. (Nanjing, China). MCF-7 cells were cultured in a base medium (90% RPMI-1640 and 10% FBS) at 37 °C, 5% CO2 and a saturated humidity atmosphere. MDA-MB-231 cells were cultured in a base medium (90% […] and 10% FBS) at 37 °C, 5% CO2 and a saturated humidity atmosphere. L-O2 cells were cultured in a base medium (90% DMEM and 10% FBS) at 37 °C, 5% CO2 and a saturated humidity atmosphere.
(§2) The cytotoxicity of the tested compounds was determined using the 3-(4,5-dimethyl-2-thiazolyl)-2,5-diphenyl-2-H-tetrazolium bromide (MTT) assay. Cells were seeded in 96-well plates and incubated in a 5% CO2 incubator at 37 °C. When the cells adhered, compounds at different concentrations were added to every well. After incubation for another 72 h, MTT solution (5 mg/mL) was added into each well and cells were incubated for an additional 4 h. The viable cells were stained with MTT and scanned with an electrophotometer at 570 nm. Each concentration treatment was done in triplicate wells. The half maximal inhibitory concentration (IC50) values were estimated by fitting the inhibition data to a dose-dependent curve using a logistic derivative equation.

[2] = system: normal human liver L-O2 cell lines; assay: MTT cytotoxicity assay, L-O2; format: cell-based; conditions: mean ± SD of three experiments, No = No inhibition detected
Description: as §1, §2

[3] = system: human breast adenocarcinoma MCF-7 cell lines; assay: MTT cytotoxicity assay, MCF-7; format: cell-based
Description: as §1, §2

[4] = system: MCF-7 and MDA-MB-231 cell lines; assay: MTT assay, summary over tested tumor cells; format: cell-based, human; conditions: for IC50: Homo sapiens, MCF-7 and MDA-MB-231, read-out: IC50, anti-proliferative activity against tested tumor cells
Description: as §1, §2

[5] = MTT, 72 h, mean ± SD of three experiments, read-out: IC50 MCF-7
[6] = Table 2, mean ± SD of three experiments, read-out: IC50 for MCF-7
[7] = Homo sapiens, MCF7, MTT, 72 h, mean ± SD of three experiments, read-out: IC50 MCF-7
[8] = Homo sapiens, MCF7, Table 2, mean ± SD of three experiments, read-out: IC50 for MCF-7
[9] = Homo sapiens, MCF7, pIC50 = −log(IC50), read-out: pIC50 for MCF-7 (converted)

Row | Compound | IC50 ([1]; 72 h) [µM] | IC50 ([2]; 72 h) [µM] | IC50 [3, 5] [µM] | IC50 [3, 6] [µM] | pIC50 for MCF-7 ([3]; pIC50 = −log(IC50)) | IC50 ([1]; Homo sapiens, MDA-MB-231, 72 h) [µM] | IC50 ([2]; Homo sapiens, L02, 72 h) [µM] | IC50 [3, 7] [µM] | IC50 [3, 8] [µM] | IC50 [3, 9] [µM] | melting point [°C] | IC50 [4] [µM] | IC50 L-O2 ([2]; 72 h) | selectivity towards cancerous cell lines vs healthy cell line ([4]; MCF-7 and MDA-MB-231 vs L-O2)
1 | 3-[6-(5-Methyl-Uracil-3-yl)-Hexyloxy]-2-Methoxy-Estra-1,3,5(10)-Triene-17β-ol [Compound 21a] | 7.34 ± 0.56 | 28.2 ± 0.57 | 9.97 ± 0.39 | 9.97 ± 0.39 | 5.00 |  |  |  |  |  |  |  |  | 
2 | 3-[6-(Uracil-3-yl)-Hexyloxy]-2-Methoxy-Estra-1,3,5(10)-Triene-17β-ol [Compound 20a] | 14 ± 1.69 | 38.5 ± 1.87 | 17.9 ± 0.22 | 17.9 ± 0.22 | 4.75 |  |  |  |  |  |  |  |  | 
3 | 3-[8-(5-Methyl-Uracil-3-yl)-Octyloxy]-2-Methoxy-Estra-1,3,5(10)-Triene-17β-ol [Compound 23a] | 12.7 ± 0.22 | 25.5 ± 1.86 | 8.75 ± 0.22 | 8.75 ± 0.22 | 5.06 |  |  |  |  |  |  |  |  | 
4 | 3-[8-(Uracil-3-yl)-Octyloxy]-2-Methoxy-Estra-1,3,5(10)-Triene-17β-ol [Compound 22a] | 9.58 ± 0.98 | 25.9 ± 1.82 | 10.3 ± 0.37 | 10.3 ± 0.37 | 4.99 |  |  |  |  |  |  |  |  | 
5 | 17 β-[6-(5-Methyl-Uracil-3-yl)-Hexyloxy]-2-Methoxy-Estra-1,3,5(10)-Triene-3-ol [Compound 13a] | 13.3 ± 0.16 | 51.4 ± 1.47 | 16.6 ± 1.26 | 16.6 ± 1.26 | 4.78 |  |  |  |  |  |  |  |  | 
6 | 17 β-[8-(5-Methyl-Uracil-3-yl)-Octyloxy]-2-Methoxy-Estra-1,3,5(10)-Triene-3-ol [Compound 15a] | 19.3 ± 1.54 | 52.6 ± 1.82 | 12.1 ± 0.45 | 12.1 ± 0.45 | 4.92 |  |  |  |  |  |  |  |  | 
7 | 17 β-[8-(Uracil-3-yl)-Octyloxy]-2-Methoxy-Estra-1,3,5(10)-Triene-3-ol [Compound 14a] | 8 ± 0.41 | 17.5 ± 0.69 | 9.22 ± 0.21 | 9.22 ± 0.21 | 5.04 |  |  |  |  |  |  |  |  | 
8 | COc1cc2c(cc1O)CC[C@@H]1[C@@H]2CC[C@]2(C)[C@@H](O)CC[C@@H]12 [Compound 1, 2-Methoxyestradiol] |  |  |  |  |  | 1.86 ± 0.02 | 4.7 ± 0.45 | 1.51 ± 0.04 | 1.51 ± 0.04 | 1.51 |  |  |  | 
9 | O=c1[nH]cc(F)c(=O)[nH]1 [Compound 5-FU, reference compound] | 61.9 ± 2.23 | > 100 | 8.87 ± 0.59 |  |  |  |  |  |  |  |  |  |  | 
10 | COc1cc2c(cc1O)CC[C@@H]1[C@@H]2CC[C@]2(C)[C@@H](OCCCCCCn3c(=O)ccn([C@@H]4O[C@H](CO)[C@@H](O)[C@H]4O)c3=O)CC[C@@H]12 [Compound 10, 17 β-[6-(1-β-D-Ribofuranosyluracil-3-yl)-Hexyloxy]-2-Methoxy-Estra-1,3,5(10)-Triene-3-ol] |  |  |  |  |  | 13.2 ± 1.09 | 35.2 ± 0.42 | 16.7 ± 0.3 | 16.7 ± 0.3 | 16.6 | 79 to 81 | 3.89 to 16.7 |  | 
11 | COc1cc2c(cc1O)CC[C@@H]1[C@@H]2CC[C@]2(C)[C@@H](OCCCCCCn3ccc(=O)n(CCCCCCO[C@H]4CC[C@H]5[C@@H]6CCc7cc(O)c(OC)cc7[C@H]6CC[C@]45C)c3=O)CC[C@@H]12 [Compound 12b, 1,3-bis-{6-[2-Methoxy-3-Hydroxy-Estra-1,3,5(10)-Triene-17β-yl-oxy]-Hexyl}-Uracil] |  |  |  |  |  | > 100 |  | > 100 | > 100 | > 100 | 71 to 73 |  | No ^b | 
12 | COc1cc2c(cc1O)CC[C@@H]1[C@@H]2CC[C@]2(C)[C@@H](OCCCCCCn3cc(C)c(=O)n(CCCCCCO[C@H]4CC[C@H]5[C@@H]6CCc7cc(O)c(OC)cc7[C@H]6CC[C@]45C)c3=O)CC[C@@H]12 [Compound 13b, 1,3-Bis-{6-[2-Methoxy-3-Hydroxy-Estra-1,3,5(10)-Triene-17β-yl-oxy]-Hexyl}-5-Methyl-Uracil] |  |  |  |  |  | > 100 |  | > 100 | > 100 | > 100 | 84 to 86 |  | No | 
13 | COc1cc2c(cc1O)CC[C@@H]1[C@@H]2CC[C@]2(C)[C@@H](OCCCCCCCCn3ccc(=O)n(CCCCCCCCO[C@H]4CC[C@H]5[C@@H]6CCc7cc(O)c(OC)cc7[C@H]6CC[C@]45C)c3=O)CC[C@@H]12 [Compound 14b, 1,3-Bis-{8-[2-Methoxy-3-Hydroxy-Estra-1,3,5(10)-Triene-17β-yl-Oxy]-Octyl}-Uracil] |  |  |  |  |  | > 100 |  | > 100 | > 100 | > 100 | 73 to 75 |  | No | 
14 | COc1cc2c(cc1O)CC[C@@H]1[C@@H]2CC[C@]2(C)[C@@H](OCCCCCCCCn3cc(C)c(=O)n(CCCCCCCCO[C@H]4CC[C@H]5[C@@H]6CCc7cc(O)c(OC)cc7[C@H]6CC[C@]45C)c3=O)CC[C@@H]12 [Compound 15b, 1,3-bis-{8-[2-Methoxy-3-Hydroxy-Estra-1,3,5(10)-Triene-17β-yl-oxy]-Octyl}-5-Methyl-Uracil] |  |  |  |  |  | > 100 |  | > 100 | > 100 | > 100 | 73 to 75 |  | No | 
15 | COc1cc2c(cc1OCCCCCCn1c(=O)ccn([C@@H]3O[C@H](CO)[C@@H](O)[C@H]3O)c1=O)CC[C@@H]1[C@@H]2CC[C@]2(C)[C@@H](O)CC[C@@H]12 [Compound 18, 3-[6-(1-β-D-Ribofuranosyluracil-3-yl)-Hexyloxy]-2-Methoxy-Estra-1,3,5(10)-Triene-17β-ol] |  |  |  |  |  | 3.89 ± 0.36 | 21.3 ± 0.66 | 6.21 ± 0.37 | 6.21 ± 0.37 | 6.17 | 99 to 100 | 3.89 to 16.7 |  | 
16 | COc1cc2c(cc1OCCCCCCCCn1c(=O)ccn([C@@H]3O[C@H](CO)[C@@H](O)[C@H]3O)c1=O)CC[C@@H]1[C@@H]2CC[C@]2(C)[C@@H](O)CC[C@@H]12 [Compound 19, 3-[8-(1-β-D-Ribofuranosyluracil-3-yl)-Octyloxy]-2-Methoxy-Estra-1,3,5(10)-Triene-17β-ol] |  |  |  |  |  | 10.44 ± 0.07 | 32.8 ± 0.65 | 7.87 ± 0.42 | 7.87 ± 0.42 | 7.94 | 93 to 95 | 3.89 to 16.7 |  | 
17 | COc1cc2c(cc1OCCCCCCn1ccc(=O)n(CCCCCCOc3cc4c(cc3OC)[C@H]3CC[C@]5(C)[C@@H](O)CC[C@H]5[C@@H]3CC4)c1=O)CC[C@@H]1[C@@H]2CC[C@]2(C)[C@@H](O)CC[C@@H]12 [Compound 20b, 1,3-Bis-{6-[2-Methoxy-17β-Hydroxy-Estra-1,3,5(10)-Triene-3-yl-Oxy]-Hexyl}-Uracil] |  |  |  |  |  | > 100 |  | > 100 | > 100 | > 100 | 93 to 94 |  | No | 
18 | COc1cc2c(cc1OCCCCCCn1cc(C)c(=O)n(CCCCCCOc3cc4c(cc3OC)[C@H]3CC[C@]5(C)[C@@H](O)CC[C@H]5[C@@H]3CC4)c1=O)CC[C@@H]1[C@@H]2CC[C@]2(C)[C@@H](O)CC[C@@H]12 [Compound 21b, 1,3-bis-{6-[2-Methoxy-17β-Hydroxy-Estra-1,3,5(10)-Triene-3-yl-oxy]-Hexyl}-5-Methyl-Uracil] |  |  |  |  |  | 23.8 ± 1.45 | > 100 | 28.4 ± 1.76 | 28.4 ± 1.76 | 28.2 | 79 to 81 | ~25 |  | about 4 fold
19 | COc1cc2c(cc1OCCCCCCCCn1ccc(=O)n(CCCCCCCCOc3cc4c(cc3OC)[C@H]3CC[C@]5(C)[C@@H](O)CC[C@H]5[C@@H]3CC4)c1=O)CC[C@@H]1[C@@H]2CC[C@]2(C)[C@@H](O)CC[C@@H]12 [Compound 22b, 1,3-Bis-{8-[2-Methoxy-17β-Hydroxy-Estra-1,3,5(10)-Triene-3-yl-Oxy]-Octyl}-Uracil] |  |  |  |  |  | > 100 |  | > 100 | > 100 | > 100 | 74 to 76 |  | No | 
20 | COc1cc2c(cc1OCCCCCCCCn1cc(C)c(=O)n(CCCCCCCCOc3cc4c(cc3OC)[C@H]3CC[C@]5(C)[C@@H](O)CC[C@H]5[C@@H]3CC4)c1=O)CC[C@@H]1[C@@H]2CC[C@]2(C)[C@@H](O)CC[C@@H]12 [Compound 23b, 1,3-bis-{8-[2-Methoxy-17β-Hydroxy-Estra-1,3,5(10)-Triene-3-yl-Oxy]-octyl}-5-Methyl-Uracil] |  |  |  |  |  | > 100 |  | > 100 | > 100 | > 100 | 75 to 76 |  | No | 

Reference: paper PMC7023064, “Design, Synthesis, and Evaluation of Novel 2-Methoxyestradiol Derivatives as Apoptotic Inducers through an Intrinsic Apoptosis Pathway” (Biomolecules, 2020)
